In PubChem BioAssay (NCI):
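48-hour exposure; five concentrations; linearly interpolated endpoints. Definition used: TGI = concentration required for complete inhibition of growth.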

How the values were obtained:
Assay in all cases: NCI anticancer screen, dose series, 48 h
HOP-92 NSCLC = tested on: HOP-92 NSCLC
UO-31 renal = tested on: UO-31 renal
NCI-H460 lung = tested on: NCI-H460 lung
SK-MEL-2 melanoma = tested on: SK-MEL-2 melanoma
DLD-1 colon = tested on: DLD-1 colon
MALME-3M melanoma = tested on: MALME-3M melanoma
LOX IMVI melanoma = tested on: LOX IMVI melanoma
786-0 renal = tested on: 786-0 renal
KM20L2 colon = tested on: KM20L2 colon
SK-MEL-5 melanoma = tested on: SK-MEL-5 melanoma
A498 renal = tested on: A498 renal
KM12 colon = tested on: KM12 colon
HOP-18 NSCLC = tested on: HOP-18 NSCLC
SF-295 CNS = tested on: SF-295 CNS
NCI-H226 lung = tested on: NCI-H226 lung
M14 melanoma = tested on: M14 melanoma
UACC-62 melanoma = tested on: UACC-62 melanoma
OVCAR-8 ovarian = tested on: OVCAR-8 ovarian
NCI-H522 lung = tested on: NCI-H522 lung
SF-539 CNS = tested on: SF-539 CNS
SK-MEL-28 melanoma = tested on: SK-MEL-28 melanoma
EKVX NSCLC = tested on: EKVX NSCLC
SW-620 colon = tested on: SW-620 colon
HOP-62 NSCLC = tested on: HOP-62 NSCLC
RXF 393 renal = tested on: RXF 393 renal
ACHN renal = tested on: ACHN renal
U251 CNS = tested on: U251 CNS
HCT-15 colon = tested on: HCT-15 colon
UACC-257 melanoma = tested on: UACC-257 melanoma
DMS 273 small cell lung = tested on: DMS 273 small cell lung
DMS 114 small cell lung = tested on: DMS 114 small cell lung
SNB-78 CNS = tested on: SNB-78 CNS
HCC-2998 colon = tested on: HCC-2998 colon
M19-MEL melanoma = tested on: M19-MEL melanoma
XF 498 CNS = tested on: XF 498 CNS
IGROV1 ovarian = tested on: IGROV1 ovarian
A549 NSCLC = tested on: A549 NSCLC
OVCAR-3 ovarian = tested on: OVCAR-3 ovarian
RXF-631 renal = tested on: RXF-631 renal
HCT-116 colon = tested on: HCT-116 colon
CCRF-CEM leukemia = tested on: CCRF-CEM leukemia
SN12C renal = tested on: SN12C renal
SK-OV-3 ovarian = tested on: SK-OV-3 ovarian
K-562 leukemia = tested on: K-562 leukemia
COLO 205 colon = tested on: COLO 205 colon
MOLT-4 leukemia = tested on: MOLT-4 leukemia
RPMI-8226 leukemia = tested on: RPMI-8226 leukemia
HT29 colon = tested on: HT29 colon
LXFL 529 NSCLC = tested on: LXFL 529 NSCLC
OVCAR-5 ovarian = tested on: OVCAR-5 ovarian
SR leukemia = tested on: SR leukemia
SF-268 CNS = tested on: SF-268 CNS
OVCAR-4 ovarian = tested on: OVCAR-4 ovarian
SNB-75 CNS = tested on: SNB-75 CNS
HL-60(TB) leukemia = tested on: HL-60(TB) leukemia
NCI-H23 lung = tested on: NCI-H23 lung
TK-10 renal = tested on: TK-10 renal
CAKI-1 renal = tested on: CAKI-1 renal
SNB-19 CNS = tested on: SNB-19 CNS

Measured: TGI

C[N+](C)(C)CC(=O)N/N=C(\C(=O)NC1=C(Cl)C(=O)c2ccccc2C1=O)C(C#N)c1csc(-c2ccc([N+](=O)[O-])cc2)n1 (centres undefined)
> 100 µM: all assays above
